Some test systems named below: SNB-19 CNS; HCT-116 colon; MDA-MB-435; SK-MEL-5 melanoma; NCI-H460 lung; 786-0 renal; RXF 393 renal; MCF7 breast; SR leukemia; IGROV1 ovarian; TK-10 renal; CCRF-CEM leukemia; OVCAR-5 ovarian; HOP-62 NSCLC; SN12C renal; OVCAR-4 ovarian.
Test in all cases: NCI-60 cell line screen, 48 h

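These data come from cells grown in 96-well plates and exposed to compound for 48 hours at five concentrations. GI50 = concentration required for 50% inhibition of growth. TGI denotes the concentration required for complete inhibition of growth.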

Regarding `Cc1c(NC(=S)Nc2ccc(Cl)cc2)c(=O)n(-c2ccccc2)n1C`, the TGI in the test on SNB-19 CNS, in the test with HCT-116 colon, in the test on MDA-MB-435, with SK-MEL-5 melanoma, with NCI-H460 lung and in the test on 786-0 renal was above 100 µM throughout. For the same molecule, the TGI in the test on RXF 393 renal, in the test on MCF7 breast, in the test with SR leukemia, with IGROV1 ovarian, in the test with TK-10 renal and with CCRF-CEM leukemia was above 100 µM each time. Besides, the TGI with OVCAR-5 ovarian and with HOP-62 NSCLC was above 100 µM throughout.
In the case of `Cn1c(-c2cccs2)cc(-c2cccs2)c1-c1ccsc1`, the TGI in the test on SN12C renal, with SNB-19 CNS, with HCT-116 colon, in the test on MDA-MB-435, with SK-MEL-5 melanoma and in the test on NCI-H460 lung was above 100 µM throughout. Further, the TGI in the test with 786-0 renal, in the test on RXF 393 renal, with MCF7 breast, with SR leukemia, with OVCAR-4 ovarian and with TK-10 renal was above 100 µM throughout. The TGI with CCRF-CEM leukemia, in the test with OVCAR-5 ovarian and in the test on HOP-62 NSCLC was above 100 µM in each case.
For the molecule `COC(=O)c1csc(-c2nc(CCNC(=O)OC(C)(C)C)sc2Br)n1`, the TGI in the test with SN12C renal, in the test with SNB-19 CNS, with HCT-116 colon, with MDA-MB-435, in the test on SK-MEL-5 melanoma and with NCI-H460 lung was above 100 µM each time. Besides, the TGI in the test on 786-0 renal, in the test on RXF 393 renal, in the test on MCF7 breast, with SR leukemia, in the test with IGROV1 ovarian and in the test with TK-10 renal was above 100 µM throughout. Also, the TGI in the test with CCRF-CEM leukemia, in the test with OVCAR-5 ovarian and in the test with HOP-62 NSCLC was above 100 µM each time.
Consider `O=S1C2=C(Cc3ccccc3)C(Cc3ccccc3)=C1CCc1cccc(c1)CC2`, for which the TGI with SN12C renal came to 30.6 µM; in the test with SNB-19 CNS it was 28.1 µM; with HCT-116 colon, 21.5 µM; in the test on MDA-MB-435, 27.5 µM; with SK-MEL-5 melanoma it was 30 µM; with NCI-H460 lung, 26.8 µM. The TGI with 786-0 renal came out at 28.9 µM; with RXF 393 renal, 19.7 µM; in the test on MCF7 breast, 25.7 µM; in the test on SR leukemia it was 90.2 µM; in the test with OVCAR-4 ovarian, 21.4 µM; in the test on TK-10 renal, 33.7 µM. The TGI in the test on CCRF-CEM leukemia was above 100 µM; in the test on OVCAR-5 ovarian, 35.5 µM.
For the molecule `O=C(CC(C(=O)c1ccoc1)c1ccco1)c1ccco1` (stereo not given), the TGI with SN12C renal, in the test on HCT-116 colon, in the test on MDA-MB-435, in the test with SK-MEL-5 melanoma, in the test with NCI-H460 lung and with 786-0 renal was above 100 µM each time. The TGI in the test on RXF 393 renal, with MCF7 breast, in the test on SR leukemia, in the test with IGROV1 ovarian, in the test with OVCAR-4 ovarian and with TK-10 renal was above 100 µM throughout. For the same molecule, the TGI in the test on CCRF-CEM leukemia, with OVCAR-5 ovarian and in the test with HOP-62 NSCLC was above 100 µM throughout.
For the molecule `CN1CN(c2ccccc2)C2(CCN(CCc3csc4ccccc34)CC2)C1=O`, the TGI is 32.1 µM in the test on SN12C renal; 93.4 µM with SNB-19 CNS; 23.4 µM in the test with HCT-116 colon; 31.6 µM in the test on MDA-MB-435; 33.3 µM in the test with SK-MEL-5 melanoma; 30.5 µM with 786-0 renal. Besides, the TGI in the test on RXF 393 renal turned out to be 25.3 µM; in the test with MCF7 breast, 33.9 µM; with SR leukemia, 80.6 µM; in the test on IGROV1 ovarian it was 52.3 µM; with TK-10 renal it was 34 µM; in the test on CCRF-CEM leukemia it was 46.6 µM. Also, the TGI with OVCAR-5 ovarian was determined as 25.3 µM; in the test on HOP-62 NSCLC it was 26.4 µM.
Turning to `COc1ccc(CCNC(=O)Cc2cc(OC)c(OC)cc2CO)cc1OC`, the TGI in the test on SN12C renal, with HCT-116 colon, in the test with MDA-MB-435, in the test on SK-MEL-5 melanoma, with NCI-H460 lung and in the test on 786-0 renal was above 100 µM each time. The TGI in the test with RXF 393 renal, with MCF7 breast, with SR leukemia, in the test on IGROV1 ovarian, with OVCAR-4 ovarian and in the test with TK-10 renal was above 100 µM throughout. Further, the TGI in the test on CCRF-CEM leukemia, in the test on OVCAR-5 ovarian and with HOP-62 NSCLC was above 100 µM throughout.
As to `COc1ccccc1N1CCN(Cn2c(=O)oc3cccnc32)CC1`, the TGI in the test with SNB-19 CNS, in the test with HCT-116 colon, with MDA-MB-435, in the test on SK-MEL-5 melanoma, in the test on NCI-H460 lung and in the test with 786-0 renal was above 100 µM in each case. Besides, the TGI in the test with RXF 393 renal, with MCF7 breast, with SR leukemia, in the test on IGROV1 ovarian, in the test with OVCAR-4 ovarian and in the test with TK-10 renal was above 100 µM throughout. Moreover, the TGI in the test on CCRF-CEM leukemia, in the test with OVCAR-5 ovarian and with HOP-62 NSCLC was above 100 µM in each case.
Consider `COC(=O)c1cc(C#Cc2cc(OC)ccc2OC)ccc1OC`, for which the GI50 in the test with SN12C renal is 37.9 µM; with HCT-116 colon it was 37.7 µM; with CCRF-CEM leukemia, 36.8 µM. For the same molecule, the TGI was above 100 µM with SN12C renal; above 100 µM in the test with SNB-19 CNS; above 100 µM in the test with HCT-116 colon; above 100 µM in the test on MDA-MB-435; 53.1 µM in the test with SK-MEL-5 melanoma; above 100 µM with NCI-H460 lung. Besides, the TGI in the test with 786-0 renal was above 100 µM; in the test with RXF 393 renal, 84.1 µM; with MCF7 breast, above 100 µM; in the test on SR leukemia, above 100 µM; in the test with IGROV1 ovarian, above 100 µM; in the test with OVCAR-4 ovarian it was above 100 µM. For the same molecule, the TGI in the test with TK-10 renal, with CCRF-CEM leukemia and in the test with OVCAR-5 ovarian was above 100 µM throughout.
On to `S=c1[nH]c(=S)c2cc(Sc3ccc4[nH]c(=S)[nH]c(=S)c4c3)ccc2[nH]1`, for which the TGI in the test with SN12C renal is above 100 µM; in the test with SNB-19 CNS, 78.2 µM; with HCT-116 colon, above 100 µM; in the test with MDA-MB-435, above 100 µM; with SK-MEL-5 melanoma it was above 100 µM; with NCI-H460 lung, above 100 µM. Moreover, the TGI was 40 µM with 786-0 renal; 53.3 µM with RXF 393 renal; above 100 µM in the test on MCF7 breast; 51.2 µM in the test with SR leukemia; 86.8 µM in the test on IGROV1 ovarian; 49.7 µM in the test with OVCAR-4 ovarian. The TGI in the test with TK-10 renal is 67.7 µM; in the test on CCRF-CEM leukemia it was 80.9 µM; in the test with OVCAR-5 ovarian, above 100 µM.
On to `COc1cc(COC(=O)N2CCC2C(=O)O)c([N+](=O)[O-])cc1OC` (stereo not given), for which the TGI in the test on SN12C renal, in the test on SNB-19 CNS, in the test with HCT-116 colon, with MDA-MB-435, with SK-MEL-5 melanoma and in the test with NCI-H460 lung was above 100 µM each time. In addition, the TGI in the test with 786-0 renal, in the test with RXF 393 renal, in the test with MCF7 breast, in the test with SR leukemia, in the test on IGROV1 ovarian and with TK-10 renal was above 100 µM throughout. Besides, the TGI in the test on CCRF-CEM leukemia, in the test with OVCAR-5 ovarian and in the test with HOP-62 NSCLC was above 100 µM in each case.
Regarding `CCC(=O)O[C@H]1CC[C@H]2[C@@H]3CCC4=C/C(=N/NC(=O)c5cccc6c(=O)c7ccccc7[nH]c56)CC[C@]4(C)[C@H]3CC[C@]12C`, the TGI is above 25 µM in the test on SN12C renal; above 25 µM with SNB-19 CNS; above 25 µM in the test with MDA-MB-435; above 25 µM in the test with SK-MEL-5 melanoma; above 25 µM in the test with NCI-H460 lung; 10.3 µM in the test with 786-0 renal. Also, the TGI with RXF 393 renal, with MCF7 breast, in the test with SR leukemia, in the test with IGROV1 ovarian, in the test with OVCAR-4 ovarian and in the test with TK-10 renal was above 25 µM in each case. The TGI in the test on CCRF-CEM leukemia, in the test on OVCAR-5 ovarian and with HOP-62 NSCLC was above 25 µM each time.
Regarding `Cc1cccc(NC(=S)N=Nc2c(O)[nH]c3ccccc23)c1`, the TGI in the test on SN12C renal, in the test on SNB-19 CNS, in the test with HCT-116 colon, in the test with MDA-MB-435, in the test on SK-MEL-5 melanoma and in the test on NCI-H460 lung was above 100 µM throughout. Further, the TGI in the test on 786-0 renal, with RXF 393 renal, in the test on MCF7 breast, with SR leukemia, in the test on IGROV1 ovarian and in the test with OVCAR-4 ovarian was above 100 µM each time. In addition, the TGI in the test with CCRF-CEM leukemia, in the test on OVCAR-5 ovarian and in the test with HOP-62 NSCLC was above 100 µM each time.
Turning to `COc1cc2c(c(OC)c1OC)-c1ccc(SC)cc1[C@H](OC(=O)c1ccccc1)CC2`, the TGI is above 78.2 µM in the test on SN12C renal; 1.45 µM in the test with HCT-116 colon; above 100 µM with MDA-MB-435; 1.21 µM in the test on SK-MEL-5 melanoma; above 100 µM with NCI-H460 lung; above 100 µM with 786-0 renal. Further, the TGI in the test with RXF 393 renal is 0.452 µM; in the test on MCF7 breast, above 33.2 µM; in the test with SR leukemia it was above 100 µM; with IGROV1 ovarian, above 100 µM; in the test on OVCAR-4 ovarian, above 100 µM; in the test with TK-10 renal it was above 100 µM. The TGI with CCRF-CEM leukemia, in the test on OVCAR-5 ovarian and in the test on HOP-62 NSCLC was above 100 µM throughout.

Values taken from PubChem BioAssay (NCI).
